Legend:
[1] = test system: HLA-DR4 restricted mouse T cell hybridoma line (DR4.CII.36.8) with HLA-DRB1*04:01-expressing Boleth cells; test: HLA-DR4-restricted peptide-specific T cell-based assay (hybridoma assay); details: 6 h, inhibition of IL-2 production, CII259-273 peptide presented by Boleth cells
Outline: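 Boleth cells (HLA-DRB1*04:01 B cell line) pre-incubated with compound 1 h at 37° C. in DMEM/1% FCS, then DR4.CII.36.8 mouse T cell hybridoma (CII259-273-specific) added for 6 h with CII259-273 peptide. Supernatant mouse IL-2 by AlphaLISA; IC50 by 4-PL fit of 8-point duplicate titrations.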

[2] = biological target: HLA-DRB1*0401 (Homo sapiens (Human), UniProt P01903+P01911, A100K/A169T/DEL228-266/F76Y/I96L/K127E/L162R/M171V/N62H/P40V/Q125Y/R42H/S133A/S149N/S66Y/V115G/V209L/W38E); test: HLA-DR4 HTRF assay; type: binding; details: inhibition of loading of Alexa Fluor 647-labeled Cit-CII peptide onto HLA-DR4 (CLIP cleaved)
Outline: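 HLA-DRB1*04:01 construct (α/β fused to human Fc, CLIP pre-cleaved by HRV3C overnight at 4° C) at 3 nM was preincubated 45 min with compound and 1 nM anti-Fc-Tb donor, then 40 nM Alexa647-Cit-CII1236-1249 peptide added. After 90 min at 37° C, the 665/620 nm HTRF ratio gave % inhibition; IC50 by nonlinear regression.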

[3] = test system: human peripheral blood CD4+ helper T cells; test: Pan-CD4+ T cell activation (off-target assay); type: cell-based; details: anti-CD3/anti-CD28 stimulation, IL-2 production by ELISA
Outline: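 Human peripheral blood CD4+ T cells, with no APCs present, were stimulated with plate-bound anti-CD3 (1 μg/mL coating) plus soluble anti-CD28 (1 μg/mL) in the presence of compound or vehicle for 24 h. IL-2 in the supernatant was quantified by ELISA.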

Row | SMILES | IC50 ([1]; Mus musculus, T-cell) [µM] | IC50 [2] [µM] | IC50 ([3]; Homo sapiens, T-cell, 24 h) [µM] | IC50 [1] [µM] | IC50 ([3]; 24 hrs) [µM]
1 | CC[C@H]1CC(=O)c2ccc(O[C@H](c3ccncc3)c3ccc(C(N)=O)cc3)cc2O1 (single isomer, unassigned) [Example 41b, 4-((*S)—(((*S)-2-ethyl-4-oxochroman-7-yl)oxy)(pyridin-4-yl)methyl)benzamide] | 1.5 | 1.1 | > 15 | – | –
2 | C[C@H]1CC(=O)c2ccc(O[C@@H](c3ccncc3)c3ccc(C(N)=O)cc3)cc2O1 (single isomer, unassigned) [Example 39c, 4-((*R)—(((*S)-2-Methyl-4-oxochroman-7-yl)oxy)(pyridin-4-yl)methyl)benzamide] | 1.1 | 0.99 | 9.9 | – | –
3 | Cc1c(O[C@H](c2ccc(Cl)cc2)c2ccc(C(N)=O)nc2)ccc2c1OCCC2=O (single isomer, unassigned) [Example 64a, (*R)-5-((4-chlorophenyl)((8-methyl-4-oxochroman-7-yl)oxy)methyl)picolinamide] | 6 | 1.7 | 2 | – | –
4 | N#Cc1c(O[C@@H](c2ccncc2)c2ccc(C(N)=O)cc2)ccc2c1OCCC2=O (single isomer, unassigned) [Example 78a, (*R)-4-(((8-cyano-4-oxochroman-7-yl)oxy)(pyridin-4-yl)methyl)benzamide] | 2.3 | 0.47 | 9.9 | – | –
5 | CC1(C)COc2cc(O[C@H](c3ccncc3)c3ccc(C(N)=O)cc3)ccc2C1=O (single isomer, unassigned) [Example 56b, (*S)-4-(((3,3-dimethyl-4-oxochroman-7-yl)oxy)(pyridin-4-yl)methyl)benzamide] | 6 | 1.3 | > 15 | – | –
6 | CC[C@H]1CC(=O)c2ccc(O[C@@H](c3ccncc3)c3ccc(C(N)=O)cc3)cc2O1 (single isomer, unassigned) [Example 40b, 4-((*R)—(((*S)-2-ethyl-4-oxochroman-7-yl)oxy)(pyridin-4-yl)methyl)benzamide] | 1 | 1.3 | 15 | – | –
7 | NC(=O)c1ccc([C@H](Oc2ccc3c(c2)OCCC3=O)c2ccnc(-c3ccccc3)c2)cc1 (single isomer, unassigned) [Example 26b, (*S)-4-(((4-oxochroman-7-yl)oxy)(2-phenylpyridin-4-yl)methyl)benzamide] | 1.6 | 88 | 15 | – | –
8 | CCOc1cc(C(N)=O)ccc1[C@H](Oc1ccc2c(c1C)OCCC2=O)c1ccncc1 (single isomer, unassigned) [Example 83a, (*R)-3-ethoxy-4-(((8-methyl-4-oxochroman-7-yl)oxy)(pyridin-4-yl)methyl)benzamide] | 2.7 | 0.95 | 0.99 | – | –
9 | Cc1cc2c(cc1O[C@@H](c1ccncc1)c1ccc(C(N)=O)cc1)OCCC2=O (single isomer, unassigned) [Example 49a, (*R)-4-(((6-Methyl-4-oxochroman-7-yl)oxy)(pyridin-4-yl)methyl)benzamide] | 0.2 | 0.57 | 9.9 | – | –
10 | Cc1c(O[C@@H](c2ccncc2)c2ccc(C(N)=O)cc2OCC(C)C)ccc2c1OCCC2=O (single isomer, unassigned) [Example 85b, (*S)-3-isobutoxy-4-(((8-methyl-4-oxochroman-7-yl)oxy)(pyridin-4-yl)methyl)benzamide] | 3.9 | 1.1 | 0.47 | – | –
11 | NC(=O)c1ccc([C@H](Oc2ccc3c(c2)O[C@@H](c2ccccc2)CC3=O)c2ccncc2)cc1 (single isomer, unassigned) [Example 42a, 4-((*S)—(((*R)-4-oxo-2-phenylchroman-7-yl)oxy)(pyridin-4-yl)methyl)benzamide] | 11 | 3.8 | > 15 | – | –
12 | Cc1cc2c(c(C)c1O[C@@H](c1ccncc1)c1ccc(C(N)=O)cc1)OCCC2=O (single isomer, unassigned) [Example 89a, (*R)-4-(((6,8-dimethyl-4-oxochroman-7-yl)oxy)(pyridin-4-yl)methyl)benzamide] | 1.8 | 0.47 | 4.7 | – | –
13 | NC(=O)c1ccc([C@@H](Oc2ccc3c(c2Br)OCCC3=O)c2ccncc2)cc1 (single isomer, unassigned) [Example 102a, (*R)-4-(((8-bromo-4-oxochroman-7-yl)oxy)(pyridin-4-yl)methyl)benzamide] | 0.099 | 78 | 15 | – | –
14 | O=C1CCOc2cc(O[C@@H](c3ccncc3)c3cccc(F)c3)ccc21 (single isomer, unassigned) [Example 2b, (*S)-7-((3-Fluorophenyl)(pyridin-4-yl)methoxy)chroman-4-one] | 3.9 | 1.8 | > 15 | – | –
15 | Cc1c(O[C@@H](c2ccncc2)c2ccc(C(N)=O)cc2)ccc2c1OCCC2=O (single isomer, unassigned) [Example 48b, (*S)-4-(((8-methyl-4-oxochroman-7-yl)oxy)(pyridin-4-yl)methyl)benzamide] | – | 0.69 | – | 1.1 | > 15
16 | NC(=O)c1ccc([C@@H](Oc2ccc3c(c2)OCCC3=O)c2cccnc2)cc1 (single isomer, unassigned) [Example 31a, (*R)-4-(((4-oxochroman-7-yl)oxy)(pyridin-3-yl)methyl)benzamide] | 5.5 | 0.85 | 15 | – | –
17 | Cc1c(O[C@H](c2ccccc2)c2ccc(C(N)=O)cc2)ccc2c1OCCC2=O (single isomer, unassigned) [Example 69a, (*R)-4-(((8-Methyl-4-oxochroman-7-yl)oxy)(phenyl)methyl)benzamide] | 2.2 | 2.1 | 6.1 | – | –
18 | Cc1c(O[C@H](c2ccncc2)c2cccc(CNC(N)=O)c2)ccc2c1OCCC2=O (single isomer, unassigned) [Example 81b, (*S)-1-(3-(((8-methyl-4-oxochroman-7-yl)oxy)(pyridin-4-yl)methyl)benzyl)urea] | 1.3 | 0.61 | > 15 | – | –
19 | Cc1c(O[C@@H](c2ccc(C(N)=O)cc2)c2ccccc2C#N)ccc2c1OCCC2=O (single isomer, unassigned) [Example 61b, (*S)-4-((2-cyanophenyl)((8-methyl-4-oxochroman-7-yl)oxy)methyl)benzamide] | 5.2 | 0.96 | > 15 | – | –
20 | C[C@@H]1COc2cc(O[C@@H](c3ccncc3)c3ccc(C(N)=O)cc3)ccc2C1=O (single isomer, unassigned) [Example 44b, 4-((*R)—(((*R)-3-Methyl-4-oxochroman-7-yl)oxy)(pyridin-4-yl)methyl)benzamide] | 2.3 | 1.1 | > 15 | – | –
21 | NC(=O)c1ccc([C@@H](Oc2ccc3c(c2)OCCC3=O)c2ccccc2)cc1 (single isomer, unassigned) [Example 29b, (*S)-4-(((4-oxochroman-7-yl)oxy)(phenyl)methyl)benzamide] | 5 | 0.96 | > 15 | – | –
22 | Cc1cc([C@@H](Oc2c(F)cc3c(c2C)OCCC3=O)c2ccc(C(N)=O)cc2)cc(C)n1 (single isomer, unassigned) [Example 94b, (*S)-4-((2,6-dimethylpyridin-4-yl)((6-fluoro-8-methyl-4-oxochroman-7-yl)oxy)methyl)benzamide] | 0.89 | 0.23 | 9.9 | – | –
